Data set [1] has as its system sensitized Brown Norway rats. The experiment in a line: Ovalbumin-induced accumulation of inflammatory cells in lung lavage fluid (allergen-induced lung inflammation). The class given is in vivo, rat. The conditions noted are these: p.o. The method, then:
The ability of a compound to inhibit the allergen-induced accumulation of inflammatory cells such as eosinophils and neutrophils in the lavage fluid obtained from sensitized animals is indicative of that compound's anti-asthma activity. […] The test is conducted as follows.
Male Brown Norway rats are sensitized to ovalbumin by single intraperitoneal injection of 1 mg ovalbumin adsorbed to 100 mg […] (alum) in 1 ml sterile saline (saline control rats receive only sterile saline) on day 1, and allowed to sensitize until day 21. […] Rats are challenged with 0.5% ovalbumin in saline generated using a Devillbis nebulizer for 60 min on day 21.
Forty-eight hrs after challenge, animals are sacrificed with an overdose of intraperitoneally-delivered sodium pentobarbitol and the lungs are lavaged with cold 2×7 ml phosphate buffered saline. The recovered lavage fluid is placed on ice. The bronchoalveolar lavage fluid is centrifuged and the supernatant removed. The pellet is resuspended in phosphate buffered saline at 4° C. Cytospins are prepared and stained for differentiation and enumeration of cell types.
Test compound was administered in 300 μl corn oil (Tables 7 and 8) or water (Table 9), which were used as vehicles. Control animals received 300 μl corn oil or water alone, i.e., no drug. […] A negative value in Table 7, 8, or 9 indicates an exacerbation of the effect over the control animal.

Data set [2] deals with Rat Mast Cell Line (RBL-2H3). The experiment in a line: Antigen-induced release of hexosaminidase from a rat mast cell line (RBL-2H3). The class given is cell-based. The conditions noted are these: Rattus norvegicus, RBL-2H3, inhibition of antigen (DNP-HSA)-induced hexosaminidase release, tested at 0.3, 3, 10 and 30 μM, read-out: Hex IC50. The method, then: The anti-allergic effects of a compound of the present invention was evaluated by measuring its effect on antigen-induced secretion of hexosaminidase from a passively sensitized rat mast cell line. The ability of a test compound to inhibit the release of mast cell granule contents, e.g., histamine and hexosaminidase, is indicative of the anti-allergy and/or anti-asthma activity of the compound. Hexosaminidase is released from the mast cell granule along with histamine and other mediators during antigen challenge. The test is performed as follows.
RBL-2H3 cells are grown in culture and passively sensitized for 1 hour at 37° C. to dinitrophenol (DNP) using anti-human-DNP (IgE). Cells are incubated with test compound for 30 minutes at 37° C. and stimulated with 0.5 μg/ml DNP-HSA (antigen) for 30 minutes. Aliquots of the supernatant are removed and used to measure the amount of hexosaminidase released during challenge with the antigen. The amount of hexosaminidase present in the supernatant is determined colorimetrically by monitoring the enzymatic metabolism of p-nitrophenyl-N-acetyl-β-D-glucosaminide (p-NAG) over a period of 60 minutes at 405 nm. The effect of each test compound is determined as a percentage of the antigen-induced response (minus background release) obtained in the presence of DMSO alone. These values are used to determine the degrees of inhibition of antigen-induced hexosaminidase release from the cells.

Data set [3] deals with Jurkat clone E6.1 cells. The experiment in a line: Antigen-induced calcium flux in anti-CD3 stimulated Jurkat cells (Fura 2AM). Type of data set: cell-based. The following applies: Homo sapiens, Jurkat, read-out: Calcium (% inhibition at 20 μM), 20 μM; anti-CD3 mAb stimulated Jurkat clone E6.1 cells. From the text:
Elevation of cytoplasmic calcium concentration is a common and crucial event which follows the activation of many types of cell surface receptors. Increases in intracellular calcium that occur following agonist activation of inositol lipid hydrolysis are the results of calcium release from the endoplasmic reticulum and the influx of calcium through the plasma membrane. Increases in cytosolic calcium concentration are involved in many important cellular responses in the inflammatory process including adhesion, motility, gene expression, proliferation, and degranulation. Changes in intracellular calcium concentrations can affect both short and long term cellular responses. An assay method to evaluate a test compound's impact on calcium flux is provided as follows.
The resulting supernatants are discarded and each pellet is washed in 10 mL HBSS. Cell suspensions are accumulated and centrifuged for 5 minutes at 900 RPM to form a cell pellet. The resulting supernatant is discarded and the pellet is resuspended in HBSS at 1×10^7cells/mL. The cell suspension is transferred to a 20 mm petri dish and incubated at 37° C., 5% CO2 for 20 minutes.
One volume of Fura 2AM is mixed to one volume of detergent Pluronic F127. Cells are labeled with 4 μL of probe solution to each mL of cell suspension. The petri dish is wrapped in aluminum foil to protect from light and placed on a plate shaker for 30 minutes at room temperature.
The following steps are done in the laminar flow hood with the fluorescent lights turned off. The petri dish is removed from the shaker and the labeled cell suspension is transferred to a 15 mL conical tube and washed twice with HBSS as above. The cell pellet is resuspended in 12 mL HBSS and left wrapped in foil for 30 minutes at room temperature. The labeled cell suspension is aliquoted (100 μL/well) into a Dynex 96 well white opaque tissue culture plate. […] Selected compounds were tested for dose related activity. Test samples and activator (anti-CD3 mAb at final concentration of 4 μg/mL, PharMingen) are added manually (50 μL), such that the minimum time to acquire the first data point after stimulation is approximately 30 seconds. The calcium influx response to anti-CD3 mAb is measured as an “end point” assay. The entire plate is read in 100 seconds using a kinetic of 1 second per well.
The plate is read before the addition of anti-CD3 to monitor non-specific effect of samples/drugs. Fluorescence emission is measured at 510 nm with excitation alternating between 340 and 380 every second using an excitation/emission filter pair. Data from these dual wavelengths are represented as a ratio of 2 excitations wavelengths. This ratio is independent of intracellular dye and cell concentrations, enabling real comparison between experiments.
Background: Calcium assays in cells follow changes in intracellular calcium, usually with a dye or a luminescent sensor.

Data set [4] can be described thus: Pharmacokinetic profile in the rat. Type of data set: in vivo.
Data set [5] can be described thus: Metabolic stability in human liver S9 fractions. The class given is in vitro ADME. From the text:
The therapeutic effectiveness of a test compound can be often directly related to its metabolic stability in vivo. The majority of known, marketed drugs are metabolized by a group of enzymes known as P450 enzymes. The S9 fraction of human liver contains all the P450 enzymes and also cytoplasmic enzymes that may be involved in the metabolism of new chemical entities. Metabolism in vitro using human S9 fractions is a standard assay to evaluate relative metabolic stability of new compounds. The test is performed as follows.
Reagents are thawed on ice and combined to make up a Master Mix as follows: Potassium phosphate (100 mM, pH 7), G6P (0.25 mM), G6PDH (2 U/ml), NADPH (1 mM), UDP (0.25 mM), APPS (0.25 mM), and S9 fraction (2 mg/ml). A volume of 498 μl of the Master mix is dispensed into each microcentrifuge tube. A volume of 2 μl of 2.5 mM test compound (final concentration of 10 μM) is dispensed into the center of the lid of the appropriate tube, and the lids gently closed to prevent mixing. Synchronous combination of test compound and master mix is achieved by simultaneous ten times inversion of the tubes, which are then incubated at 37° C. and shaken at 150 rpm for the appropriate incubation times. While incubation is in progress, all 0 time samples are mixed individually by three times inversion followed by the immediate addition of 500 μl ice cold acetonitrile with three times inversion to stop the reaction. Immediately after each 15 minutes and 30 minutes incubation is complete, ice cold acetonitrile is added to each tube and the tubes mixed by three times inversion. All sample tubes are incubated at −80° C. for a minimum of 15 minutes, thawed and remixed by inversion. Aliquots of 650 μl are transferred to Chromatographic Specialties micro-system spin filter system tubes (0.2 μm nylon membrane, C618505) and centrifuged at 13,000 rpm for 48 seconds. The sample filtrates are stored at −80° C.
Sample filtrates are analyzed on LCMS, and percent remaining after 15 and 30 minute incubation is calculated relative to the 0 minute incubation.
The metabolic stability of various compounds are summarized in Table 10 as the percent remaining after 15 or 30 minutes incubation with human liver S9 fractions.

Data set [6] in a line: Pharmacokinetic profile in the monkey. The class given is in vivo.
A short description of data set [7]: physchem. The following applies: water.
Setting [8] is: 5 mg/kg/day for 4 days, corn oil, lung lavage fluid, relative to control animals.
[9] abbreviates: 0.1 mg/kg, 4 days qd, water vehicle.
Where [10] appears, read: 0.3 mg/kg, 4 days qd, water vehicle.
The mark [11] stands for this setting: 1 mg/kg, 4 days qd, water vehicle.

As to `CC(F)=C1CCC2C3C(CC[C@]12C)[C@@]1(C)CCC(N)CC1[C@@H](O)[C@@H]3O` (some centres unmarked) [Compound 64], the “% inhibition of eosinophils” value in data set [1] (setting [8]) was 62%. The IC50 in data set [2] was determined as 14.4 µM. The inhibition at 20 µM in data set [3] is 6.7%.

In the case of `C/C=C1/CCC2C3C(CC[C@]12C)[C@@]1(C)CC[C@H](N)CC1[C@@H](O)[C@@H]3O` (some centres unmarked) [Compound 28], the “maximal concentration in plasma” value in data set [4] was “predictable and linear”; in data set [6], “predictable and linear”. In data set [1] (setting [8]), the “% inhibition of eosinophils” value was 85%. In data set [5] (human, s9, 0.5 h, 10 μM, pH 7), the “remains unchanged after 15 and even 30 minutes incubation with human S9 fractions” value (“remains unchanged … with human S9 fractions” below) is recorded as 100%. Also, in data set [2], the IC50 turned out to be 6.8 µM. Further, in data set [3], the inhibition at 20 µM is 29%.

For `CC1(C)CCC2=C1CCC1C2[C@@H](O)[C@H](O)C2C[C@@H](N)CC[C@]12C` (some centres unmarked) [Compound 139], the results for the “% inhibition of eosinophils” value in data set [1] (setting [9]), in data set [1] (setting [10]) and in data set [1] (setting [11]) were 46%, 41% and 42%, respectively. The “% inhibition of lymphocytes” value worked out at 19% in data set [1] (setting [9]), 34% in data set [1] (setting [10]) and 56% in data set [1] (setting [11]). Moreover, the “% inhibition of neutrophils” value in data set [1] (setting [9]) was found to be 42%; in data set [1] (setting [10]) it was 62%; in data set [1] (setting [11]) it was 63%. Further, the “% remaining after 15 min” value in data set [5] (human, s9, 15 min, 10 μM, pH 7) was 109 ± 26%. In data set [5] (human, s9, 0.5 h, 10 μM, pH 7), the “remains unchanged … with human S9 fractions” value came out at 100%. The “% remaining after 30 min” value in data set [5] (human, s9, 30 min, 10 μM, pH 7) was found to be 100 ± 10%. For the same compound, the IC50 in data set [2] amounted to 10.3 µM. For the same compound, in data set [3], the inhibition at 20 µM amounted to 26.3%.

For the compound `C=C1CCC2C3C(CC[C@]12C)[C@@]1(C)CC[C@H](N)CC1[C@@H](O)[C@@H]3O` (some centres unmarked) [Compound 89], the “maximal concentration in plasma” value is “predictable and linear” in data set [4]; “predictable and linear” in data set [6]. In addition, the “% inhibition of eosinophils” value in data set [1] (setting [8]) came out at 57%. Also, in data set [5] (human, s9, 0.5 h, 10 μM, pH 7), the “remains unchanged … with human S9 fractions” value was found to be 100%.

With `CCC1(C)CCC2=C1CCC1C2C(O)C(O)C2CC(N)CCC21C.Cl` (centres unmarked) [Compound 143], in data set [5] (15 and 30 minutes, human S9 fractions), the “remains unchanged … with human S9 fractions” value was 100%.

Regarding `CCC1CCC2C3C(CC[C@]12C)[C@@]1(C)CCC(N)CC1[C@@H](O)[C@@H]3O` (some centres unmarked) [Compound 96], the “% inhibition of eosinophils” value in data set [1] (setting [8]) is recorded as −9%. The IC50 in data set [2] worked out at 7.8 µM. Also, in data set [3], the inhibition at 20 µM turned out to be 47.9%.

For the compound `C/C=C1/CCC2C3C(CC[C@]12C)[C@@]1(C)CC[C@H](N)CC1[C@@H](O)[C@@H]3O` (some centres unmarked) [Compound 83], in data set [1] (setting [8]), the “% inhibition of eosinophils” value was found to be 67%. For the same compound, the solubility in data set [7] was greater than 100 mg/mL. Further, the IC50 in data set [2] stood at 7.7 µM. Also, the inhibition at 20 µM in data set [3] worked out at 30.3%.

Broadly, the IC50 is the concentration that gives 50% inhibition. As usually defined, the inhibition is how much of the control response was suppressed. In general, solubility refers to the concentration that dissolves in the medium under given conditions.

(Values after patent US20040034216A1, “3-Nitrogen-6,7-dioxygen steroids and uses related thereto” (priority 2003, published 2004).)
